Results as given in PMC11783063, “Design, synthesis, and apoptotic antiproliferative action of new benzimidazole/1,2,3-triazole hybrids as EGFR inhibitors” (Frontiers in Chemistry, 2025).

Key:
[1] = test system: four human cancer cell lines (HT-29, A-549, MCF-7, Panc-1); experiment: Antiproliferative assay, mean over four cancer cell lines (GI50); settings: Homo sapiens, read-out: Average IC50 (GI50)
Experimental: To calculate the total nuclear DNA, a fluorescent dye (propidium iodide, PI) is used which can attach to the DNA, thus offering a quick and precise technique. PI cannot pass through the cell membrane and its signal intensity can be considered as directly proportional to quantity of cellular DNA. Cells whose cell membranes are damaged or have changed permeability are counted as dead ones. […] The medium was removed; the compounds were added to the plates at 10 µM concentrations (in 0.1% DMSO) in triplicates, followed by incubation for 48 h. DMSO (0.1%) was used as control. After incubation, medium was removed followed by the addition of PI (25 µl, 50µg/mL in water/medium) to each well of the plates. At -80 °C, the plates were allowed to freeze for 24 h, followed by thawing at 25 °C. A fluorometer (Polar-Star BMG Tech) was used to record the readings at excitation and emission wavelengths of 530 and 620 nm for each well. The percentage cytotoxicity of compounds was calculated using the following formula:

Bcl-2 = Bcl-2 inhibition assay in MCF-7 cells; type: cell-based, human; settings: for Bcl-2 Conc: compound at its IC50
Experimental: The current study supplied compounds 6i and 10e to breast (MCF-7) cancer cell lines at their respective IC50 values. This led to a notable elevation of pro-apoptotic Bax expression, with a fold increase of 34 for compound 6i and 36 for compound 10e.
Compounds 6i and 10e were assessed for their ability to activate caspase-3, caspase-8, and Bax, as well as to downregulate the anti-apoptotic protein Bcl2 in the MCF-7 breast cancer cell line ([Abdelbaset et al., 2019]). Supplementary Appendix A provides more details.
Mix all the reagents thoroughly without foaming before use. Wash the microwells twice with approximately 300 μL Wash Buffer per well with thorough aspiration of microwell contents between washes. Take caution not to scratch the surface of the microwells. After the last wash, empty the wells and tap microwell strips on an absorbent pad or paper towel to remove excess Wash Buffer. Use the microwell strips immediately after washing or place upside down on a wet absorbent paper for not longer than 15 minutes. […] Add 100 μL of Sample Diluent in duplicate to all standard wells and to the blank wells. Prepare standard (1:2 dilution) in duplicate ranging from 32 ng/mL to 0.5 ng/mL. Add 100 μL of Sample Diluent, in duplicate, to the blank wells. Add 80 μL of Sample Diluent, in duplicate, to the sample wells. Add 20 μL of each Sample, in duplicate, to the designated wells. Add 50 μL of diluted biotin-conjugate to all wells, including the blank wells. Cover with a plate cover and incubate at room temperature, on a microplate shaker at 100 rpm if available, for 2 hours. Remove plate cover and empty the wells. Wash microwell strips 3 times as described in step 2. Add 100 μL of diluted Streptavidin-HRP to all wells, including the blank wells. Cover with a plate cover and incubate at room temperature, on a microplate shaker at 100 rpm if available, for 1 hour. Remove the plate cover and empty the wells. Wash microwell strips 3 times as described in step 2. Proceed to the next step. Pipette 100 μl of mixed TMB Substrate Solution to all wells, including the blanks. Incubate the microwell strips at room temperature (18° to 25°C) for about 15 minutes, if available on a rotator set at 100 rpm. Avoid direct exposure to intense light. The point, at which the substrate reaction is stopped, is often determined by the ELISA reader. Many ELISA readers record absorbance only up to 2.0 O.D. Therefore, the color development within individual microwells must be watched by the person running the assay and the substrate reaction stopped before positive wells are no longer properly detectable. Stop the enzyme reaction by quickly pipetting 100 μL of Stop Solution into each well, including the blank wells. It is important that the Stop Solution is spread quickly and uniformly throughout the microwells to completely inactivate the enzyme. Results must be read immediately after the Stop Solution is added or within one hour if the microwell strips are stored at 2 - 8°C in the dark. Read the absorbance of each microwell on a spectrophotometer using 450 nm as the primary wavelength.

SMILES: O=[N+]([O-])c1cccc(-n2cc(Cn3c(SCc4ccccc4)nc4ccccc43)nn2)c1 [10e]
- IC50 [1]: 25 nM
- Bcl-2 Conc (Bcl-2): 0.70 ng/mL
- Bcl-2 Fold reduction (Bcl-2; vs untreated control): ~7

SMILES: NS(=O)(=O)c1ccc(-n2cc(CSc3nc4ccccc4[nH]3)nn2)cc1 [6i, 4-(4-(((1H-benzimidazol-2-yl)thio)methyl)-1H-1,2,3-triazol-1-yl)benzene-sulfonamide]
- IC50 [1]: 29 nM
- Bcl-2 Conc (Bcl-2): 0.85 ng/mL
